# Source: PubChem BioAssay AID330 (DTP/NCI, 2004)
# Values joined by “and” are separate entries in the source; they are usually repeats but may differ in a detail not shown here. Equal entries are not always repeated. Inconclusive results and toxic doses are left out.
# Tested on: P388 leukemia ip, CD2F1 mice, survival T/C
# Experiment: NCI In Vivo Anticancer Drug Screen. Data for tumor model P388 Leukemia (intraperitoneal) in CD2F1 (CDF1) mice
# Conditions: endpoint: median survival time, higher = longer survival
# Procedure, shortened: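 Mice carrying the transplanted tumor received test compound or vehicle. Survival was recorded in each group, and the value is the treated-group measurement divided by that of the vehicle-treated control group.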
# [1] = dose: 50.0 mg/kg/injection, schedule: Q01DX009 (ip), vehicle: Klucel (hydroxypropylcellulose) (HPC)
# [2] = dose: 100.0 mg/kg/injection, schedule: Q01DX009 (ip), vehicle: Klucel (hydroxypropylcellulose) (HPC)
# [3] = dose: 50.0 mg/kg/injection, schedule: Q01DX005 (ip), vehicle: Klucel (hydroxypropylcellulose) (HPC)
# [4] = dose: 100.0 mg/kg/injection, schedule: Q01DX005 (ip), vehicle: Klucel (hydroxypropylcellulose) (HPC)
# [5] = dose: 200.0 mg/kg/injection, schedule: Q01DX005 (ip), vehicle: Klucel (hydroxypropylcellulose) (HPC)
# [6] = dose: 6.25 mg/kg/injection, schedule: Q01DX009 (ip), vehicle: Klucel (hydroxypropylcellulose) (HPC)
# [7] = dose: 12.5 mg/kg/injection, schedule: Q01DX009 (ip), vehicle: Klucel (hydroxypropylcellulose) (HPC)
# [8] = dose: 25.0 mg/kg/injection, schedule: Q01DX009 (ip), vehicle: Klucel (hydroxypropylcellulose) (HPC)
# [9] = dose: 100.0 mg/kg/injection, schedule: Q04DX003 (ip), vehicle: saline
# [10] = dose: 400.0 mg/kg/injection, schedule: Q04DX003 (ip), vehicle: saline
# [11] = dose: 50.0 mg/kg/injection, schedule: Q01DX009 (ip), vehicle: saline with Tween-80
# [12] = dose: 100.0 mg/kg/injection, schedule: Q01DX009 (ip), vehicle: saline with Tween-80
# [13] = dose: 25.0 mg/kg/injection, schedule: Q01DX005 (ip), vehicle: Klucel (hydroxypropylcellulose) (HPC)
# [14] = dose: 50.0 mg/kg/injection, schedule: Q01DX005 (ip), vehicle: saline
# [15] = dose: 100.0 mg/kg/injection, schedule: Q01DX005 (ip), vehicle: saline
# [16] = dose: 200.0 mg/kg/injection, schedule: Q01DX005 (ip), vehicle: saline
structure (smiles),measurement,setting,value
CCCCCCCCCCCCCCCCN1CCS(=O)(=O)CC1,T/C,[1],108 % of control
same,T/C,[2],100 % of control and 98 % of control
same,T/C,"dose: 200.0 mg/kg/injection, schedule: Q01DX009 (ip), vehicle: Klucel (hydroxypropylcellulose) (HPC)",101 % of control and 88 % of control
OC1C2CCC1C(N1CCOCC1)CC2 (stereo not drawn),T/C,"dose: 50.0 mg/kg/injection, schedule: Q01DX009 (ip), vehicle: saline sonified",100 % of control
same,T/C,"dose: 100.0 mg/kg/injection, schedule: Q01DX009 (ip), vehicle: saline sonified",100 % of control
same,T/C,"dose: 200.0 mg/kg/injection, schedule: Q01DX009 (ip), vehicle: saline sonified",105 % of control
Nc1c(Cl)ccc2cccnc12,T/C,"dose: 50.0 mg/kg/injection, schedule: Q01DX005 (ip), vehicle: saline + Tween-80 + alcohol",107 % of control
same,T/C,"dose: 100.0 mg/kg/injection, schedule: Q01DX005 (ip), vehicle: saline + Tween-80 + alcohol",107 % of control
same,T/C,"dose: 200.0 mg/kg/injection, schedule: Q01DX005 (ip), vehicle: saline + Tween-80 + alcohol",110 % of control
CCOC(=O)CCCCSCCCCC(=O)OCC,T/C,"dose: 100.0 mg/kg/injection, schedule: Q01DX001 (ip), vehicle: saline with Tween-80",100 % of control
same,T/C,"dose: 200.0 mg/kg/injection, schedule: Q01DX001 (ip), vehicle: saline with Tween-80",100 % of control
same,T/C,"dose: 400.0 mg/kg/injection, schedule: Q01DX001 (ip), vehicle: saline with Tween-80",100 % of control
Cn1c(O)c2c(c1O)C(=Nc1ccccc1)c1ccccc1C2=O,T/C,[3],86 % of control
same,T/C,[4],89 % of control
same,T/C,[5],94 % of control
C1C2OC2C2C1C1CC2C2OC12 (stereo not drawn),T/C,[6],105 % of control
same,T/C,[7],96 % of control
same,T/C,[8],99 % of control
COc1ccc(/C=N/NC(=O)c2ccc(Cl)cc2Cl)cc1OC,T/C,"dose: 60.0 mg/kg/injection, schedule: Q01DX005 (ip), vehicle: saline with Tween-80",96 % of control
same,T/C,"dose: 120.0 mg/kg/injection, schedule: Q01DX005 (ip), vehicle: saline with Tween-80",96 % of control
same,T/C,"dose: 240.0 mg/kg/injection, schedule: Q01DX005 (ip), vehicle: saline with Tween-80",92 % of control
CCCCCCCCC(O)CCC (stereo not drawn),T/C,[9],100 % of control
same,T/C,"dose: 200.0 mg/kg/injection, schedule: Q04DX003 (ip), vehicle: saline",100 % of control
same,T/C,[10],100 % of control
C=C1CC2CCC1C2 (stereo not drawn),T/C,"dose: 25.0 mg/kg/injection, schedule: Q01DX009 (ip), vehicle: saline with Tween-80",100 % of control
same,T/C,"dose: 25.0 mg/kg/injection, schedule: Q04DX003 (ip), vehicle: saline with Tween-80",104 % of control
same,T/C,[11],100 % of control
same,T/C,"dose: 50.0 mg/kg/injection, schedule: Q04DX003 (ip), vehicle: saline with Tween-80",104 % of control
same,T/C,[12],100 % of control
same,T/C,"dose: 100.0 mg/kg/injection, schedule: Q04DX003 (ip), vehicle: saline with Tween-80",100 % of control
COc1cc2c(c(OC)c1OC)-c1ccc(SC)c(=O)cc1[C@@H](NC(=O)CO)CC2,T/C,"dose: 0.1 mg/kg/injection, schedule: Q01DX009 (ip), vehicle: other",150 % of control
same,T/C,"dose: 0.2 mg/kg/injection, schedule: Q01DX009 (ip), vehicle: other",157 % of control and 172 % of control
CCCCN(CCCC)CNC(=O)c1ccccc1,T/C,"dose: 50.0 mg/kg/injection, schedule: Q01DX005 (ip), vehicle: saline with Tween-80",97 % of control
same,T/C,"dose: 100.0 mg/kg/injection, schedule: Q01DX005 (ip), vehicle: saline with Tween-80",100 % of control
C=CCC1C/C=C\COC(=O)CC(C)(C)CC1=O (stereo not drawn),T/C,"dose: 25.0 mg/kg/injection, schedule: Q04DX003 (ip), vehicle: saline",100 % of control
same,T/C,"dose: 50.0 mg/kg/injection, schedule: Q04DX003 (ip), vehicle: saline",102 % of control
same,T/C,[9],102 % of control
same,T/C,[10],99 % of control
CN1CC(=O)N=C1N,T/C,"dose: 100.0 mg/kg/injection, schedule: Q04DX003 (ip), vehicle: Klucel (hydroxypropylcellulose) (HPC)",100 % of control
same,T/C,"dose: 200.0 mg/kg/injection, schedule: Q04DX003 (ip), vehicle: Klucel (hydroxypropylcellulose) (HPC)",100 % of control
same,T/C,"dose: 400.0 mg/kg/injection, schedule: Q04DX003 (ip), vehicle: Klucel (hydroxypropylcellulose) (HPC)",105 % of control
O=c1[nH]c(=O)n(C2CC(O)C(CO)O2)cc1C(F)(F)F (stereo not drawn),T/C,"dose: 20.0 mg/kg/injection, schedule: Q01DX009 (ip), vehicle: saline with Tween-80",111 % of control
same,T/C,"dose: 31.25 mg/kg/injection, schedule: Q01DX009 (ip), vehicle: Klucel (hydroxypropylcellulose) (HPC)",120 % of control
same,T/C,"dose: 40.0 mg/kg/injection, schedule: Q01DX009 (ip), vehicle: saline with Tween-80",117 % of control
same,T/C,"dose: 62.5 mg/kg/injection, schedule: Q01DX009 (ip), vehicle: Klucel (hydroxypropylcellulose) (HPC)",151 % of control
same,T/C,"dose: 80.0 mg/kg/injection, schedule: Q01DX009 (ip), vehicle: saline with Tween-80",119 % of control
same,T/C,"dose: 125.0 mg/kg/injection, schedule: Q01DX005 (ip), vehicle: Klucel (hydroxypropylcellulose) (HPC)",152 % of control
same,T/C,"dose: 125.0 mg/kg/injection, schedule: Q01DX009 (ip), vehicle: Klucel (hydroxypropylcellulose) (HPC)",178 % of control and 183 % of control
same,T/C,"dose: 160.0 mg/kg/injection, schedule: Q01DX009 (ip), vehicle: saline with Tween-80",111 % of control
same,T/C,"dose: 250.0 mg/kg/injection, schedule: Q01DX005 (ip), vehicle: Klucel (hydroxypropylcellulose) (HPC)",161 % of control
same,T/C,"dose: 250.0 mg/kg/injection, schedule: Q01DX009 (ip), vehicle: Klucel (hydroxypropylcellulose) (HPC)",176 % of control
same,T/C,"dose: 320.0 mg/kg/injection, schedule: Q01DX009 (ip), vehicle: saline with Tween-80",102 % of control
same,T/C,"dose: 500.0 mg/kg/injection, schedule: Q01DX005 (ip), vehicle: Klucel (hydroxypropylcellulose) (HPC)",151 % of control
same,T/C,"dose: 500.0 mg/kg/injection, schedule: Q01DX009 (ip), vehicle: Klucel (hydroxypropylcellulose) (HPC)",100 % of control and 104 % of control
same,T/C,"dose: 640.0 mg/kg/injection, schedule: Q01DX009 (ip), vehicle: saline with Tween-80",88 % of control
O=C(N/N=C/c1ccc(O)cc1)c1ccc(OCc2nc3ccccc3[nH]2)cc1,T/C,[13],102 % of control
same,T/C,[3],96 % of control
same,T/C,[4],102 % of control
same,T/C,[5],96 % of control
NS(=O)(=O)c1cc([N+](=O)[O-])ccc1Cl,T/C,[11],100 % of control
same,T/C,[12],100 % of control
same,T/C,"dose: 200.0 mg/kg/injection, schedule: Q01DX009 (ip), vehicle: saline with Tween-80",94 % of control
CCOC(=O)c1cnc2cc3c(cc2c1Nc1cccc(Cl)c1)OCO3,T/C,"dose: 60.0 mg/kg/injection, schedule: Q01DX005 (ip), vehicle: Klucel (hydroxypropylcellulose) (HPC)",105 % of control
same,T/C,"dose: 120.0 mg/kg/injection, schedule: Q01DX005 (ip), vehicle: Klucel (hydroxypropylcellulose) (HPC)",95 % of control
same,T/C,"dose: 240.0 mg/kg/injection, schedule: Q01DX005 (ip), vehicle: Klucel (hydroxypropylcellulose) (HPC)",108 % of control
CCCn1c(C)nc2c(cnn2C)c1=O,T/C,[3],101 % of control
same,T/C,[4],104 % of control
same,T/C,[5],111 % of control
c1ccc(C23CCCCC2=Nc2ccccc23)cc1 (stereo not drawn),T/C,[14],104 % of control
same,T/C,[15],105 % of control
same,T/C,[16],107 % of control
CCNc1nc(NC(C)C)nc(-c2ccncc2)n1,T/C,"dose: 12.5 mg/kg/injection, schedule: Q01DX005 (ip), vehicle: Klucel (hydroxypropylcellulose) (HPC)",108 % of control
same,T/C,[13],96 % of control
same,T/C,[3],101 % of control
same,T/C,[4],108 % of control
CC(O)C1CCCCN1 (stereo not drawn),T/C,[14],101 % of control
same,T/C,[15],101 % of control
same,T/C,[16],108 % of control
COc1cc2c(c(OC)c1OC)-c1c(cc3c(c1OC)OCO3)C1OC2C(C)C1C (stereo not drawn) (tested in a mixture with another compound),T/C,[13],100 % of control
same,T/C,[3],97 % of control
same,T/C,[4],100 % of control and 101 % of control
same,T/C,[5],103 % of control and 106 % of control
same,T/C,"dose: 400.0 mg/kg/injection, schedule: Q01DX005 (ip), vehicle: Klucel (hydroxypropylcellulose) (HPC)",99 % of control
COc1cc(O)c2c(c1)C(=O)c1cc3c(c(O)c1C2=O)C(O)C(OC)C(C)(O)C3=O (stereo not drawn),T/C,[6],95 % of control
same,T/C,[7],105 % of control
same,T/C,[8],98 % of control
same,T/C,[1],94 % of control
same,T/C,[2],95 % of control
